The experiment deals with T1, α-synuclein (α-syn) (Homo sapiens, UniProt P37840).
T1 construct: purchased rPeptide (Watkinsville, GA)
Kind of experiment: Thioflavin T (ThT) fluorescence assay of α-syn fibril formation. As to conditions: for remaining activity at 100 µM: α-syn 2 μM final concentration, compounds at 100 μM, average of three replicates with SEM, read-out: % ThT intensity (100 μM), maximum ThT intensity in percentage. In kind it is biochemical.

These results are taken from patent US20250241890A1, “1,4-DIUREAS AND 1,4-DITHIOUREAS AND USES THEREOF” (Purdue Research Foundation, priority 2024, published 2025).

`S=C(Nc1ccc(NC(=S)Nc2cccc3[nH]ccc23)cc1)Nc1cccc2[nH]ccc12` [Compound 2, 3-(1H-indol-4-yl)-1-(4-{[(1H-indol-4-yl)carbamothioyl]amino}phenyl)thiourea]: the remaining activity at 100 µM turned out to be 15.2%. Besides, for the setting “α-syn 6 μM, 47 hours, 12.5, 25, 50 and 100 μM”, the “dose-dependent reduction of α-syn fibrillation (ThT)” value was “dose-dependent reduction”. On to `S=C(Nc1ccc(NC(=S)Nc2cccc3cc[nH]c23)cc1)Nc1cccc2cc[nH]c12` [Compound 8, 3-(1H-indol-7-yl)-1-(4-{[(1H-indol-7-yl)carbamothioyl]amino}phenyl)thiourea], for which the remaining activity at 100 µM was 41.6%. With `O=C(Nc1ccc(NC(=O)Nc2cccc3[nH]ccc23)cc1)Nc1cccc2[nH]ccc12` [Compound 1, 3-(1H-indol-4-yl)-1-(4-{[(1H-indol-4-yl)carbamoyl]amino}phenyl)urea], the remaining activity at 100 µM came to 5.3%. Further, where the note is “Log (agonist) vs. normalized response (variable slope), Prism, α-syn 6 μM, 47 hours, 12.5, 25, 50 and 100 μM, read-out: Log EC50 (dose response curve of α-syn fibrillation, ThT) (converted)”, the EC50 was 15.9 ± 2.8 µM.
